Test results reported in US6559177B2, “5, 11-Dioxa-benzo[b]fluoren-10-one and 5-oxa-11-thia-benzo[b]fluoren-10-ones as estrogenic agents” (Wyeth, priority 2001, dated 2003).
Like-named read-outs stand apart in the source and are kept apart here.

Legend:
human ERα = molecular target: T1, human ERα (Homo sapiens, UniProt P03372); assay: Competition with [3H]-17β-estradiol for binding to ERα ligand binding domain; conditions: E. coli lysate expressing ER ligand binding domains (D,E,&F); 2 nM [3H]-17β-estradiol; 5-15 hours at room temperature
T1 construct: made in house; host or cells: E. coli (crude lysate)
T1 sequence (P03372 311-547 limits assumed): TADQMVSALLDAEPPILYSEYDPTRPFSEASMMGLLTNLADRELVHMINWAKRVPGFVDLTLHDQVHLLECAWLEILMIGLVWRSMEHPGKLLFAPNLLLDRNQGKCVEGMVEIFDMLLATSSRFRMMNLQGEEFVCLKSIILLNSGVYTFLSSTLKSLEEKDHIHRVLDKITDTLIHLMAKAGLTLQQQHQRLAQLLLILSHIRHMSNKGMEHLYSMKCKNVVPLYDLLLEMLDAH
Procedure: (§1) This test procedure provides the methodology for one to determine whether a particular compound binds to the estrogen receptor (and is therefore “estrogenic”) and whether there is selectivity for ERα or ERβ. […] The procedure used is briefly described below. A crude lysate of E. coli expressing the estrogen receptor ligand binding domains (D,E, & F) of human ERα or ERβ was prepared. Both receptors and compounds were diluted in 1× Dulbecco's PBS (DPBS) supplemented with 1 mM EDTA. […] After between 5 and 15 hours at room temperature, the plates were washed with DPBS/1 mM EDTA and bound radioactivity determined by liquid scintillation counting.

human ERβ = molecular target: T2, human ERβ (Homo sapiens, UniProt Q92731); assay: Competition with [3H]-17β-estradiol for binding to ERβ ligand binding domain
T2 construct: made in house; host or cells: E. coli (crude lysate)
Procedure: as §1

[1] = E. coli lysate expressing ER ligand binding domains (D,E,&F); 2 nM [3H]-17β-estradiol; 5-15 hours at room temperature; read-out: ERβ IC50
[2] = read-out: ERβ IC50; E. coli lysate expressing ER ligand binding domains (D,E,&F); 2 nM [3H]-17β-estradiol; 5-15 hours at room temperature

T2 sequence (Q92731 264-498 limits assumed): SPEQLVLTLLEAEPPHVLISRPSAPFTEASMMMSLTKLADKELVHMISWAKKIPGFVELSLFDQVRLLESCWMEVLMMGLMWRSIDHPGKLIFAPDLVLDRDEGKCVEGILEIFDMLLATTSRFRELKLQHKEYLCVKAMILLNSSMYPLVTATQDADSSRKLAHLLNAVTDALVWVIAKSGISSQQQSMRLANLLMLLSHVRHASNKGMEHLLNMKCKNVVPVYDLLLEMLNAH

SMILES: O=c1c2ccc(O)cc2oc2c1oc1cc(O)ccc12 [2,7-Dihydroxy-5,11-dioxa-benzo[b]fluoren-10-one]
- IC50 (human ERα): 550 nM
- IC50 (human ERβ; [1]): 32 nM

SMILES: O=c1c2cc(O)ccc2oc2c1oc1cc(O)ccc12 [2,8-Dihydroxy-5,11-dioxa[b]fluoren-10-one]
- IC50 (human ERα): 1500 nM
- IC50 (human ERβ; [1]): 192 nM

SMILES: O=c1c2oc3ccc(O)cc3c2oc2cc(O)cc(O)c12 [3,7,9-Trihydroxy-5,11-dioxa-benzo[b]fluoren-10-one]
- IC50 (human ERα): 2950 nM
- IC50 (human ERβ; [1]): 70 nM

SMILES: O=c1c2ccc(O)cc2oc2c1oc1ccc(O)cc12 [3,7-Dihydroxy-5,11-dioxa[b]fluoren-10-one]
- IC50 (human ERβ; [1]): 850 nM

SMILES: O=c1c2cc(O)ccc2oc2c1oc1ccc(O)cc12 [3,8-Dihydroxy-5,11-dioxa[b]fluoren-10-one]
- IC50 (human ERα): 188 nM
- IC50 (human ERβ; [1]): 44 nM

SMILES: O=c1c2oc3ccccc3c2oc2cc(O)cc(O)c12 [7,9-Dihydroxy-5,11-dioxa-benzo[b]fluoren-10-one]
- IC50 (human ERβ; [2]): 3190 nM

SMILES: O=c1c2sc3ccccc3c2oc2cc(O)cc(O)c12 [7,9-Dihydroxy-5-oxa-11-thia-benzo[b]fluoren-10-one]
- IC50 (human ERα): 3670 nM
- IC50 (human ERβ; [1]): 760 nM

SMILES: O=c1c2ccc(O)cc2oc2c1sc1ccccc12 [7-Hydroxy-5-oxa-11-thia-benzo[b]fluoren-10-one]
- IC50 (human ERβ; [2]): 2930 nM

SMILES: O=c1c2ccc(O)cc2oc2c1oc1c3ccccc3ccc21 [9-Hydroxy-7,13-dioxa-dibenzo[a,h]fluoren-12-one]
- IC50 (human ERα): > 5000 nM
- IC50 (human ERβ; [1]): 2710 nM
